Assay results as given in patent US12622899B2 (PureTech LYT 100, Inc., priority 2018, dated 2026).

Columns and labels:
[1] = test system: patients with COVID-19 respiratory disease; experiment: Phase 2 trial of LYT-100 in post-acute COVID-19 respiratory disease: tolerability; assay type: in vivo, human; settings: COVID-19 study
Procedure: An initial dosage of 500 mg BID was given the first 3 days of dosing, followed by 750 mg BID thereafter.

[2] = test system: patients with Idiopathic Pulmonary Fibrosis (IPF); experiment: IPF trial Part A: safety and tolerability (TEAEs, AESI, dose modifications, discontinuations); assay type: in vivo
Procedure: The primary objective was to determine the dose(s) to carry into Phase 3. […] Patients were randomized to one of the four treatments in a 1:1:1:1 ratio and stratified based on prior exposure to nintedanib (<6 months) versus nintedanib-naïve patients. Patients who completed the Double-blind Treatment Period (Part A) were offered participation in the Long-term Extension (Part B). […] For patients who participated in Part B, the follow-up was conducted at the end of Part B. A graphical illustration of an embodiment of the trial design is provided as FIG. 24B.
Safety endpoints included: Adverse events, concomitant medications, clinical laboratory findings (chemistry, hematology, urinalysis), physical examinations, ECGs, and vital signs. These will be summarized descriptively, where appropriate.
Tolerability endpoints included: Frequency of dose modifications (reductions and interruptions), time to first dose modification, (reduction or interruption), duration of adverse events of special interest, time to treatment discontinuation due to an adverse event of special interest and patient reported assessment of IPF symptoms, side-effects, severity, change and satisfaction.
In this study, AEs are reported for all patients from the time of consent until the completion of the Follow-up visit. AEs reported prior to the first dose are denoted as pre-treatment. SAEs are reported for all patients (randomized or not) from the time of consent. AEs reported from the time of consent to confinement on Day 0 were recorded as pre-treatment AEs.
Treatment emergent adverse events (TEAEs) are defined as an AE that occurs following first dose of study medication and were evaluated from the first administration of study drug on Day 1 until the Follow-up visit. […]
This study evaluated in particular the tolerability based on prioritized gastrointestinal adverse events (GI AEs). […]

[3] = target: T1, CYP1A2 (Homo sapiens, UniProt P05177); experiment: In vitro stability with recombinant human CYP1A2; assay type: in vitro ADME; settings: recombinant human isozyme; read-out: t1/2 following incubation with CYP1A2 (converted)
T1 construct: host or cells: heterologous cell systems (not specified)
T1 sequence (P05177 1-516): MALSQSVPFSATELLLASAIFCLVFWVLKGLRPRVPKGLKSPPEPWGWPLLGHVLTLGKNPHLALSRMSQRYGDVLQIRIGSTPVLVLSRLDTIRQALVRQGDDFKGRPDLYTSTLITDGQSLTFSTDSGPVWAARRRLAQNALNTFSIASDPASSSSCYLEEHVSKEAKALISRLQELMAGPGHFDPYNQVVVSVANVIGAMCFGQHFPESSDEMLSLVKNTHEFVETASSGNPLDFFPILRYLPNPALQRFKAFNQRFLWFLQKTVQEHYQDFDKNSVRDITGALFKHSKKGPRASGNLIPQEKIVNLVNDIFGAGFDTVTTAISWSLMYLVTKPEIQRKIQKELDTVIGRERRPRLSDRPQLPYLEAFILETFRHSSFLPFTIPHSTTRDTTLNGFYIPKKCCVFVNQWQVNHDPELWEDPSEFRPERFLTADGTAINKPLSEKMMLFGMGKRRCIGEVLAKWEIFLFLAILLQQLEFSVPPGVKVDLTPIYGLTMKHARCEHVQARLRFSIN
Procedure: The half-life (t½) of each test article was determined.

[4] = LYT-100 500 mg BID 3 days then 750 mg BID

[2H]C([2H])([2H])c1ccc(=O)n(-c2ccccc2)c1 [LYT-100, 5-(methyl-d3)-1-phenylpyridin-2-(1H)-one]
drug-related serious adverse events or deaths [1]: no drug-related serious adverse events (SAEs) or deaths
discontinuation rate due to AEs at least possibly related [1, 4]: 8.6%
dizziness, AE at least possibly related, incidence [1, 4]: 3.3%
fatigue, AE at least possibly related, incidence [1, 4]: 2.2%
headache, AE at least possibly related, incidence [1, 4]: 4.3%
nausea, AE at least possibly related, incidence [1, 4]: 8.7%
rash, AE at least possibly related, incidence [1, 4]: 3.3%
Dyspepsia, treatment emergent AE, events ([1]; LYT-100 750 mg BID): 6 Events
Dyspepsia, treatment emergent AE, subjects ([1]; LYT-100 750 mg BID): 6 (6.5) N (%)
Headache, treatment emergent AE, events ([1]; LYT-100 750 mg BID): 5 Events
Headache, treatment emergent AE, subjects ([1]; LYT-100 750 mg BID): 5 (5.4) N (%)
Increase in Fibrin D Dimer, treatment emergent AE, events ([1]; LYT-100 750 mg BID): 6 Events
Increase in Fibrin D Dimer, treatment emergent AE, subjects ([1]; LYT-100 750 mg BID): 5 (5.4) N (%)
Nasopharyngitis, treatment emergent AE, events ([1]; LYT-100 750 mg BID): 7 Events
Nasopharyngitis, treatment emergent AE, subjects ([1]; LYT-100 750 mg BID): 6 (6.5) N (%)
Nausea, treatment emergent AE, events ([1]; LYT-100 750 mg BID): 10 Events
Nausea, treatment emergent AE, subjects ([1]; LYT-100 750 mg BID): 8 (8.7) N (%)
Upper abdominal pain, treatment emergent AE, events ([1]; LYT-100 750 mg BID): 6 Events
Upper abdominal pain, treatment emergent AE, subjects ([1]; LYT-100 750 mg BID): 5 (5.4) N (%)
Discontinued, Primary Reason: Death ([2]; 550 mg TID (N = 65)): 0 n (%)
Discontinued, Primary Reason: Death ([2]; 825 mg TID (N = 64)): 0 n (%)
half-life [3]: 9.08 h
